Measured values reported in patent US20050009840A1 (SUGEN, INC., priority 2003, published 2005).

These compounds were tested against T1, Met kinase domain (GST fusion protein) (Homo sapiens, UniProt P08581) (assay: Met transphosphorylation assay (ELISA, poly(glu-tyr) substrate)). Conditions: read-out: Met IC50.
T1 construct: Purified GST fusion protein containing the Met kinase domain
Type: biochemical
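Also: Cell-free ELISA with plate-bound poly(Glu:Tyr 4:1) phosphorylated by GST-fused Met kinase domain plus ATP and Mn2+, phosphotyrosine detected by anti-phosphotyrosine antibody with HRP and ABTS read-out.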

T1 sequence (P08581 1078-1345 limits assumed): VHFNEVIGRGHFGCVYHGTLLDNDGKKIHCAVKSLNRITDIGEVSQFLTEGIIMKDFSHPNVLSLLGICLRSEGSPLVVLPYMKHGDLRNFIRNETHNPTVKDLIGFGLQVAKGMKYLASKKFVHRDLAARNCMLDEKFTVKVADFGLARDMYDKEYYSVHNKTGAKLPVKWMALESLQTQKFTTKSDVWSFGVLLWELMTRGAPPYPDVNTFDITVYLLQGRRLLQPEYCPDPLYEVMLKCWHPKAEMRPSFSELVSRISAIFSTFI

SMILES	IC50 [µM]
Nc1ncc(-c2ccc(C(=O)N3CC[C@H](N)C3)cc2)nc1OCc1c(F)ccc(F)c1Cl [II-36, {4-[5-Amino-6-(2-chloro-3,6-difluoro-benzyloxy)-pyrazin-2-yl]-phenyl}-[(3S)-3-amino-pyrrolidin-1-yl]-methanone]	0.37
CC(=O)N1CCN(CCNC(=O)c2ccc(-c3cnc(N)c(OCc4c(F)ccc(F)c4Cl)n3)cc2)CC1 [II-37, N-[2-(4-Acetyl-piperazin-1-yl)-ethyl]-4-[5-amino-6-(2-chloro-3,6-difluoro-benzyloxy)-pyrazin-2-yl]-benzamide]	1.35
Nc1ncc(-c2ccc(C(=O)NCCCN3CCCC3)cc2)nc1OCc1c(F)ccc(F)c1Cl [II-38, 4-[5-Amino-6-(2-chloro-3,6-difluoro-benzyloxy)-pyrazin-2-yl]-N-(3-pyrrolidin-1-yl-propyl)-benzamide]	0.58
CN(C)[C@H]1CCN(C(=O)c2ccc(-c3cnc(N)c(OCc4c(F)ccc(F)c4Cl)n3)cc2)C1 [II-39, {4-[5-Amino-8-(2-chloro-3,6-difluoro-benzyloxy)-pyrazin-2-yl]-phenyl}-[(3S)-3-dimethylamino-pyrrolidin-1-yl]-methanone]	0.67
Nc1ncc(-c2ccc(C(=O)NCCCN3CCOCC3)cc2)nc1OCc1c(F)ccc(F)c1Cl [II-43, 4-[5-Amino-6-(2-chloro-3,6-difluoro-benzyloxy)-pyrazin-2-yl]-N-(3-morpholin-4-yl-propyl)-benzamide]	0.59
Nc1ncc(-c2ccc(C(=O)NCCN3CCOCC3)cc2)nc1OCc1c(F)ccc(F)c1Cl [II-45, 4-[5-Amino-6-(2-chloro-3,6-difluoro-benzyloxy)-pyrazin-2-yl]-N-(2-morpholin-4-yl-ethyl)-benzamide]	1.11
CN1CCN(C(=O)c2ccc(-c3cnc(N)c(OCc4c(F)ccc(F)c4Cl)n3)cc2)CC1 [II-46, {4-[5-Amino-6-(2-chloro-3,6-difluoro-benzyloxy)-pyrazin-2-yl]-phenyl}-(4-methyl-piperazin-1-yl)-methanone]	0.68
CN1CCN(C(=O)c2cccc(-c3cnc(N)c(OCc4c(F)ccc(F)c4Cl)n3)c2)CC1 [II-48, {3-[5-Amino-6-(2-chloro-3,6-difluoro-benzyloxy)-pyrazin-2-yl]-phenyl}-(4-methyl-piperazin-1-yl)-methanone]	2.85
Nc1ncc(-c2cccc(C(=O)N3CC[C@@H](N)C3)c2)nc1OCc1c(F)ccc(F)c1Cl [II-49, {3-[5-Amino-6-(2-chloro-3,6-difluoro-benzyloxy)-pyrazin-2-yl]-phenyl}-[(3R)-3-amino-pyrrolidin-1-yl]-methanone]	1.02
Nc1ncc(-c2cccc(C(=O)N3CC[C@H](N)C3)c2)nc1OCc1c(F)ccc(F)c1Cl [II-50, {3-[5-Amino-6-(2-chloro-3,6-difluoro-benzyloxy)-pyrazin-2-yl]-phenyl}-[(3S)-3-amino-pyrrolidin-1-yl]-methanone]	0.91
Nc1ncc(-c2cccc(C(=O)NCCCN3CCOCC3)c2)nc1OCc1c(F)ccc(F)c1Cl [II-52, 3-[5-Amino-6-(2-chloro-3,6-difluoro-benzyloxy)-pyrazin-2-yl]-N-(3-morpholin-4-yl-propyl)-benzamide]	4.2
Nc1ncc(-c2cccc(C(=O)NCCN3CCCC3)c2)nc1OCc1c(F)ccc(F)c1Cl [II-55, 3-[5-Amino-6-(2-chloro-3,6-difluoro-benzyloxy)-pyrazin-2-yl]-N-(2-pyrrolidin-1-yl-ethyl)-benzamide]	1.6
Nc1ncc(-c2cccc(C(=O)N3CCC[C@H]3CN3CCCC3)c2)nc1OCc1c(F)ccc(F)c1Cl [II-57, {3-[5-Amino-6-(2-chloro-3,6-difluoro-benzyloxy)-pyrazin-2-yl]-phenyl}-[(2S)-pyrrolidin-1-ylmethyl-pyrrolidin-1-yl]-methanone]	0.63
Nc1ncc(-c2cccc(C(=O)NCCN3CCOCC3)c2)nc1OCc1c(F)ccc(F)c1Cl [II-58, 3-[5-Amino-6-(2-chloro-3,6-difluoro-benzyloxy)-pyrazin-2-yl]-N-(2-morpholin-4-yl-ethyl)-benzamide]	2.5
CC(=O)N1CCN(CCNC(=O)c2cccc(-c3cnc(N)c(OCc4c(F)ccc(F)c4Cl)n3)c2)CC1 [II-59, N-[2-(4-Acetyl-piperazin-1-yl)-ethyl]-3-[5-amino-6-(2-chloro-3,6-difluoro-benzyloxy)-pyrazin-2-yl]-benzamide]	2.77
Nc1ncc(-c2cccc(C(=O)NCCCN3CCCC3)c2)nc1OCc1c(F)ccc(F)c1Cl [II-60, 3-[5-Amino-6-(2-chloro-3,6-difluoro-benzyloxy)-pyrazin-2-yl]-N-(3-pyrrolidin-1-yl-pyropyl)-benzamide]	1.48
Nc1ncc(-c2ccc3[nH]cc(CN4CCCC4)c3c2)nc1OCc1c(F)ccc(F)c1Cl [II-62, 3-(2-Chloro-3,6-difluoro-benzyloxy)-5-(3-pyrrolidin-1-ylmethyl-1H-indol-5-yl)-pyrazin-2-ylamine]	0.35
CCN(CC)Cc1c[nH]c2ccc(-c3cnc(N)c(OCc4c(F)ccc(F)c4Cl)n3)cc12 [II-63, 3-(2-Chloro-3,6-difluoro-benzyloxy)-5-(3-diethylaminomethyl-1H-indol-5-yl)-pyrazin-2-ylamine]	0.73

SMILES	IC50 [µM]
CC(=O)N1CCN(Cc2c[nH]c3ccc(-c4cnc(N)c(OCc5c(F)ccc(F)c5Cl)n4)cc23)CC1 [II-64, 1-(4-{5-[5-Amino-6-(2-chloro-3,6-difluoro-benzyloxy)-pyrazin-2-yl]-1H-indol-3-ylmethyl}-piperazin-1-yl)-ethanone]	1.5
C[C@@H]1CN(Cc2c[nH]c3ccc(-c4cnc(N)c(OCc5c(F)ccc(F)c5Cl)n4)cc23)C[C@H](C)O1 [II-65, 3-(2-Chloro-3,6-difluoro-benzyloxy)-5-[3-(2,6-dimethyl-morpholin-4-ylmethyl)-1H-indol-5-yl]-pyrazin-2-ylamine]	2.4
CC(=O)N[C@H]1CCN(Cc2c[nH]c3ccc(-c4cnc(N)c(OCc5c(F)ccc(F)c5Cl)n4)cc23)C1 [II-66, N-(1-{5-[5-Amino-6-(2-chloro-3,6-difluoro-benzyloxy)-pyrazin-2-yl]-1H-indol-3-ylmethyl}-(3S)-pyrrolidin-3-yl)-acetamide]	0.55
Nc1ncc(-c2ccc3[nH]cc(CN4CCCCC4)c3c2)nc1OCc1c(F)ccc(F)c1Cl [II-67, 3-(2-Chloro-3,6-difluoro-benzyloxy)-5-(3-piperidin-1-ylmethyl-1H-indol-5-yl)-pyrazin-2-ylamine]	0.51
Nc1ncc(-c2ccc3[nH]cc(CN4CCOCC4)c3c2)nc1OCc1c(F)ccc(F)c1Cl [II-68, 3-(2-Chloro-3,6-difluoro-benzyloxy)-5-(3-morpholin-4-ylmethyl-1H-indol-5-yl)-pyrazin-2-ylamine]	1.15
CC(C)C(Oc1nc(-c2ccc(OCCN3CCOCC3)cc2)cnc1N)c1c(F)ccc(F)c1Cl (centres unmarked) [II-69, 3-[1-(2-Chloro-3,6-difluoro-phenyl)-2-methyl-propoxy]-5-[4-(2-morpholin-4-yl-ethoxy)-phenyl]-pyrazin-2-ylamine]	10.6
CC(Oc1nc(-c2ccc(OCCN3CCOCC3)cc2)cnc1N)c1c(F)ccc(F)c1Cl (centres unmarked) [II-70]	0.51
CC(Oc1nc(-c2ccc(OCCN3CCOCC3)cc2)cnc1N)c1c(Cl)ccc(F)c1Cl (centres unmarked) [II-71, 3-[1-(2,6-Dichloro-3-fluoro-phenyl)-ethoxy]-5-[4-(2-morpholin-4-yl-ethoxy)-phenyl]-pyrazin-2-ylamine; compound with trifluoro-acetic acid]	0.3
CC(Oc1nc(-c2cccc(C(=O)O)c2)cnc1N)c1c(Cl)ccc(F)c1Cl (centres unmarked) [II-83, 3-{5-amino-6-[1-(2,6-dichloro-3-fluoro-phenyl)-ethoxy]-pyrazin-2-yl}benzoic acid]	1.36
CC(Oc1nc(-c2cccc(C(=O)N3CC[C@H](N)C3)c2)cnc1N)c1c(Cl)ccc(F)c1Cl (stereo partly drawn) [II-84, (3-{5-Amino-6-[1-(2,6-dichloro-3-fluoro-phenyl)-ethoxy]-pyrazin-2-yl}-phenyl)-[(3S)-3-amino-pyrrolidin-1-yl)-m-ethanone]	0.069
CC(Oc1nc(-c2cccc(C(=O)N3CC[C@@H](N)C3)c2)cnc1N)c1c(Cl)ccc(F)c1Cl (stereo partly drawn) [II-85, (3-{5-Amino-6-[1-(2,6-dichloro-3-fluoro-phenyl)-ethoxy]-pyrazin-2-yl}-phenyl)-[(3R)-3-amino-pyrrolidin-1-yl)-m-ethanone]	0.11
CC(=O)N1CCN(CCNC(=O)c2cccc(-c3cnc(N)c(OC(C)c4c(Cl)ccc(F)c4Cl)n3)c2)CC1 (centres unmarked) [II-87, N-[2-(4-Acetyl-piperazin-1-yl)-ethyl]-3-{5-amino-6-[1-(2,6-dichloro-3-fluoro-phenyl)-ethoxy]-pyrazin-2-yl}-benzamide]	0.186
CC(Oc1nc(-c2cccc(C(=O)NCCCN3CCCC3)c2)cnc1N)c1c(Cl)ccc(F)c1Cl (centres unmarked) [II-91, 3-{5-Amino-6-[1-(2,6-dichloro-3-fluoro-phenyl)-ethoxy]-pyrazin-2-yl}-N-(3-pyrrolidin-1-yl-propyl)-benzamide]	0.15
CC(Oc1nc(-c2cccc(C(=O)N3CCC(N4CCCC4)CC3)c2)cnc1N)c1c(Cl)ccc(F)c1Cl (centres unmarked) [II-92, (3-{5-Amino-6-[1-(2,6-dichloro-3-fluoro-phenyl)-ethoxy]-pyrazin-2-yl}-phenyl)-(4-pyrrolidin-1-yl-piperidin-1-yl)-methanone]	0.15
Nc1ncc(-c2ccc(C(=O)NCCN3CCOCC3)cc2)nc1OCc1cccc(F)c1C(F)(F)F [II-94, 4-[5-Amino-6-(3-fluoro-2-trifluoromethyl-benzyloxy)-pyrazin-2-yl]-N-(2-morpholin-4-yl-ethyl)-benzamide]	0.22
CN1CCC(NC(=O)c2ccc(-c3cnc(N)c(OCc4cccc(F)c4C(F)(F)F)n3)cc2)CC1 [II-95, 4-[5-Amino-6-(3-fluoro-2-trifluoromethyl-benzyloxy)-pyrazin-2-yl]-N-(1-methyl-piperidin-4-yl)-benzamide]	0.081
CC(Oc1nc(-c2cccc(C(=O)NCCCN3CCCC3)c2)cnc1N)c1c(Cl)ccc(F)c1Cl (centres unmarked) [II-96, 3-{5-Amino-6-[1-(2,6-dichloro-3-fluoro-phenyl)-ethoxy]-pyrazin-2-yl}-N-(3-pyrrolidin-1-yl-propyl)-benzamide]	0.15
